In PMC3415572 (Journal of medicinal chemistry, 2012):
“Also recorded” adds a separate entry of the source. Like-named read-outs stand apart in the source and are kept apart here.

Columns and labels:
D2R = D2R (Homo sapiens, UniProt P14416); test: BRET1-based GoA activation assay, D2R; format: cell-based
D3R = D3R (Homo sapiens, UniProt P35462); test: BRET1-based GoA activation assay, D3R; format: cell-based; conditions: for efficacy type at D3R (in words): GoA BRET; for efficacy type at D3R (in words) / Emax in the Go BRET assay, D3R: HEK293T; for Emax in the Go BRET assay, D3R: dose-response 100 pM to 100 µM
Chain of D3R (P35462 whole entry): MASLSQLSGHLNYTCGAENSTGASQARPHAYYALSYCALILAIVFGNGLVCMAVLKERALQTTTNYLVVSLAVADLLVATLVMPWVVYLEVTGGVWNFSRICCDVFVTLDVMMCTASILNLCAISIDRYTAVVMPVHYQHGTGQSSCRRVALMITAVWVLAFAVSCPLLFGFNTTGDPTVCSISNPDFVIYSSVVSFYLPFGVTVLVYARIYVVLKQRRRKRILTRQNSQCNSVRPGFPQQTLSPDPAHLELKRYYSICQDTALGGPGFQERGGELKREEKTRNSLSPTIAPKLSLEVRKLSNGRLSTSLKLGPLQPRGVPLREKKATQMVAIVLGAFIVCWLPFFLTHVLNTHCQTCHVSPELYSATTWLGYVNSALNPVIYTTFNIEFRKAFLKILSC

[1] = HEK293T, dose-response 100 pM to 100 µM

Chain of D2R (P14416 1-414 isoform P14416-2): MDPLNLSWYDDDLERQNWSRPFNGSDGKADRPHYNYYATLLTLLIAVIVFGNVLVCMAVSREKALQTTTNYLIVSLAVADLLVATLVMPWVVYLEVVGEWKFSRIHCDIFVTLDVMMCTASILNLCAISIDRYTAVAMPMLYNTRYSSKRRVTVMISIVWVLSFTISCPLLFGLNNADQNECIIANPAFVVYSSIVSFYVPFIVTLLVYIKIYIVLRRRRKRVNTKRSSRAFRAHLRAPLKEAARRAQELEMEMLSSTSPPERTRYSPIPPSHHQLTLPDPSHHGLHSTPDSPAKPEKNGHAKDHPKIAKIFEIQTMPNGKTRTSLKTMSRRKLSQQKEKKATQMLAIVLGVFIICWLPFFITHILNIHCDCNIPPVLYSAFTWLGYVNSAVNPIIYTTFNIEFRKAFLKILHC

SMILES | efficacy type at D3R (in words) (D3R) | Emax in the Go BRET assay, D3R (D3R) | further results
NCCc1ccc(O)c(O)c1 [dopamine, reference compound] |  |  | efficacy type at D2R (in words) (D2R): full agonists
CCCCNC(=O)c1cc2ccccc2[nH]1 [Compound 18, N-Butyl-1H-indole-2-carboxamide] | no activity; also recorded: failed to activate | −0.65 % of the Emax of dopamine | 
CCN1CCCC1CNC(=O)c1cc(S(N)(=O)=O)ccc1OC (stereo not shown) [Compound 7, sulpiride, reference compound] | inverse agonist | −6.83 % of the Emax of dopamine | shift of dopamine dose-response curve at D3R (D3R; sulpiride 100 nM): dramatically right-shifted the potency of dopamine; efficacy type at D2R (in words) (D2R; GoA BRET, HEK293T): inverse agonist; Emax in the Go BRET assay, D2R (D2R; [1]): −6.26 % of the Emax of dopamine; shift of dopamine dose-response curve at D2R (D2R; sulpiride 100 nM): dramatically right-shifted the potency of dopamine
O=C(NCCCCN1CCN(c2cccc(Cl)c2Cl)CC1)c1cc2ccccc2[nH]1 [Compound 4, N-(4-(4-(2,3-dichlorophenyl)piperazin-1-yl)butyl)-1H-indole-2-carboxamide] | weak partial agonism | 16.00 % of the Emax of dopamine | efficacy type at D2R (in words) (D2R; GoA BRET, HEK293T): weak partial agonism
O=C(NCC[C@@H](O)CN1CCN(c2cccc(Cl)c2Cl)CC1)c1cc2ccccc2[nH]1 [Compound 2] | weak partial agonism |  | 
Clc1cccc(N2CCNCC2)c1Cl [Compound 8, 2,3-diCl-4-phenylpiperazine] | substantial partial agonism | 57.27 % of the Emax of dopamine | efficacy type at D2R (in words) (D2R; GoA BRET, HEK293T): substantial partial agonism; Emax in the Go BRET assay, D2R (D2R; [1]): 40.03 % of the Emax of dopamine
COc1ccccc1N1CCN(CCCCNC(=O)c2cc3ccccc3[nH]2)CC1 [Compound 5] | weak partial agonism | 8.38 % of the Emax of dopamine | efficacy type at D2R (in words) (D2R; GoA BRET, HEK293T): weak partial agonism; Emax in the Go BRET assay, D2R (D2R; [1]): 13.65 % of the Emax of dopamine
CCc1cc(Cl)c(OC)c(C(=O)NC[C@@H]2CCCN2CC)c1O [Compound 3, eticlopride, reference compound] | inverse agonist |  | 
COc1ccccc1N1CCNCC1 [Compound 9, 2-OCH3-4-phenylpiperazine] | only minimal efficacy | 6.27 % of the Emax of dopamine | Emax in the Go BRET assay, D2R (D2R): 14.02 % of the Emax of dopamine; efficacy type at D2R (in words) (D2R): only minimal efficacy
CCCCN1CCN(c2cccc(Cl)c2Cl)CC1 [Compound 14, 1-Butyl-4-(2,3-dichlorophenyl)piperazine] |  | 14.13 % of the Emax of dopamine | 
COc1ccccc1N1CCN(C)CC1 [Compound 11, 1-(2-Methoxyphenyl)-4-methylpiperazine] |  | 7.11 % of the Emax of dopamine | 
OCCN1CCN(c2cccc(Cl)c2Cl)CC1 [Compound 12, 2-(4-(2,3-Dichlorophenyl)piperazin-1-yl)ethanol] |  | 21.08 % of the Emax of dopamine | 
CCC(=O)NCCCCN1CCN(c2cccc(Cl)c2Cl)CC1 [Compound 16] |  | 22.32 % of the Emax of dopamine | 
CCCCN1CCN(c2ccccc2OC)CC1 [Compound 15, 1-Butyl-4-(2-methoxyphenyl)piperazine] |  | 9.40 % of the Emax of dopamine | 
CCC(=O)NCCCCN1CCN(c2ccccc2OC)CC1 [Compound 17] |  | 7.37 % of the Emax of dopamine | 
CN1CCN(c2cccc(Cl)c2Cl)CC1 [Compound 10, 1-(2,3-Dichlorophenyl)-4-methylpiperazine] |  | 37.53 % of the Emax of dopamine | 
CCCN1CCN(c2cccc(Cl)c2Cl)CC1 [Compound 13, 1-(2,3-Dichlorophenyl)-4-propylpiperazine] |  | 17.53 % of the Emax of dopamine | 
